Source: article doi:10.1101/2021.02.21.432137v1 (biorxiv, 2021)
Read-outs that look alike come from different tables or passages of the source.

How the values were obtained:
[1] = target: T1, human recombinant STK3 (MST2) (Homo sapiens, UniProt Q13188); test: radiometric kinase assay; assay type: biochemical
T1 sequence (Q13188 1-491 limits assumed): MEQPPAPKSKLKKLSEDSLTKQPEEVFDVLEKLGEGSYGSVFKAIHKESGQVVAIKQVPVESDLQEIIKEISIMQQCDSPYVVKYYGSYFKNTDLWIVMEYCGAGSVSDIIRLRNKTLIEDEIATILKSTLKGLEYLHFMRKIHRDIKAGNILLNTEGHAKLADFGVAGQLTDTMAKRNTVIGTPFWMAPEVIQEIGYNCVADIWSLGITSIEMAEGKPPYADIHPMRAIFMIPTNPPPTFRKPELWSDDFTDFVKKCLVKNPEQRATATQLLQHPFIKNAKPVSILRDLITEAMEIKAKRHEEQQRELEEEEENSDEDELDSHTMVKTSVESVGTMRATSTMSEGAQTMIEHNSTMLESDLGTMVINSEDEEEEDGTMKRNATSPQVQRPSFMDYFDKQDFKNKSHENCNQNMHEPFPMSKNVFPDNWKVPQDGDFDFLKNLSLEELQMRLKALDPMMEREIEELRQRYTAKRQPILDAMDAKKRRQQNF

[2] = target: T2, NanoLuc-STK3 (STK3-NanoBRET) (Homo sapiens, UniProt Q13188); test: NanoBRET tracer displacement in live cells; assay type: cell-based
T2 sequence (Q13188 1-491): T1 sequence (Q13188 1-491 limits assumed)

[3] = target: T1, human recombinant STK3 (MST2); details: inhibitor
human recombinant STK4 = target: T3, human recombinant STK4 (Homo sapiens, UniProt Q13043); details: inhibitor
T3 sequence (Q13043 1-487): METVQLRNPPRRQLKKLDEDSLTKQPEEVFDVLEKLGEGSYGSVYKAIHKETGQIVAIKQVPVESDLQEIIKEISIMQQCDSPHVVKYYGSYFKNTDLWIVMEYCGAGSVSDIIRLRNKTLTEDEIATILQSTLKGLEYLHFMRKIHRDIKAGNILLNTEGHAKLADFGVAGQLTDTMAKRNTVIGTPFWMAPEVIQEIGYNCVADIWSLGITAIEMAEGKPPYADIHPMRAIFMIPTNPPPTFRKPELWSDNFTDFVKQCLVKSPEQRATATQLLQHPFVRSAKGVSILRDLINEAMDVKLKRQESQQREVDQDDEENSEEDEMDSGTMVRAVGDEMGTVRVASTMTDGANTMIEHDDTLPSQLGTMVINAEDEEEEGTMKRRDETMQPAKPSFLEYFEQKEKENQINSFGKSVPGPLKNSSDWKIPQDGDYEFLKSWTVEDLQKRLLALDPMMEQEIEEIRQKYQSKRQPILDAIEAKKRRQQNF

[4] = target: human recombinant STK24 (aka MST3) (Homo sapiens, UniProt Q9Y6E0); details: inhibitor
[5] = target: human recombinant STK26 (aka MST4) (Homo sapiens, UniProt Q9P289); details: inhibitor
Chain of human recombinant STK26 (aka MST4) (Q9P289 2-416): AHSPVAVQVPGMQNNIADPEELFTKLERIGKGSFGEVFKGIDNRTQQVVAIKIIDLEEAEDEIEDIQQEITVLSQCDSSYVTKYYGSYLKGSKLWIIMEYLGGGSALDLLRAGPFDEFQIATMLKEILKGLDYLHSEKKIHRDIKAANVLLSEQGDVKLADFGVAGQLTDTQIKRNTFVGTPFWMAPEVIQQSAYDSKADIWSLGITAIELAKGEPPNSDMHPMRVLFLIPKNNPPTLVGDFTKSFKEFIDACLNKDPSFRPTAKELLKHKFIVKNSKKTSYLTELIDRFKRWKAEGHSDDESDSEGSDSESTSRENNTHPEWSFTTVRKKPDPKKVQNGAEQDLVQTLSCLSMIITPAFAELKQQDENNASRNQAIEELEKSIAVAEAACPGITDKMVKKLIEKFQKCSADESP

Chain of human recombinant STK24 (aka MST3) (Q9Y6E0 whole entry): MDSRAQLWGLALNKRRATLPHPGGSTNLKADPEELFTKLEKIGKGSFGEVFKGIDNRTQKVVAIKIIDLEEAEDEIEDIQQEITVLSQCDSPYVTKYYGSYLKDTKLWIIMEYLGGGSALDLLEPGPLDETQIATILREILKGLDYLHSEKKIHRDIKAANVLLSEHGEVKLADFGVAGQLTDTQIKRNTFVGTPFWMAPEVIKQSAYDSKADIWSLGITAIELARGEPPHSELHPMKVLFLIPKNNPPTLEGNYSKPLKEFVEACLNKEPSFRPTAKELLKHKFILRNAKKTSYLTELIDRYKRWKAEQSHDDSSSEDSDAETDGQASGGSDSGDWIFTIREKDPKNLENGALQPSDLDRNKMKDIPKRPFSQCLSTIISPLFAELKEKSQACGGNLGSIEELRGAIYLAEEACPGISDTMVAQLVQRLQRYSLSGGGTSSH

Row | Compound | IC50 [2] [nM] | STK4 % activity remaining (1µM) (human recombinant STK4) [%] | MST3 % activity remaining (1µM) [4] [%] | MST4 % activity remaining (1µM) [5] [%] | also measured
1 | C[C@H](NC(=O)c1c[nH]c2ncc(C3CC3)nc12)C(C)(C)O [A2, UNC-BE4-018] | 9200 | – | – | – | IC50 [1]: 195 nM
2 | C[C@H](NC(=O)c1c[nH]c2ncc(C3CC3)nc12)C(C)(C)O [A2] | – | 7 | 12 | 54 | STK3 % activity remaining (1µM) [3]: 15%
3 | C[C@H](NC(=O)c1c[nH]c2ncc(-c3ccccc3)nc12)C(C)(C)C [A3, UNC-BE4-035] | 2000 | – | – | – | IC50 [1]: 7 nM
4 | C[C@H](NC(=O)c1c[nH]c2ncc(-c3ccccc3)nc12)C(C)(C)C [A3] | – | 2 | 6 | 27 | –
5 | C[C@H](NC(=O)c1c[nH]c2ncc(-c3ccccc3)nc12)C(C)(C)O [A4, UNC-BE4-36-1] | 2100 | – | – | – | IC50 [1]: 124 nM
6 | C[C@H](NC(=O)c1c[nH]c2ncc(-c3ccccc3)nc12)C(C)(C)O [A4] | – | 4 | 9 | 51 | –
7 | COc1cccc([C@H](C)NC(=O)c2c[nH]c3ncc(-c4ccccc4)nc23)c1 [A5, UNC-BE4-040-1] | – | – | – | – | IC50 ([1]; ATP at Km, myelin basic protein substrate): 391 nM; IC50 ([2]; read-out: NB IC50, NanoBRET Tracer K10 at […], live HEK-293 cells): > 10000 nM
8 | COc1cccc([C@H](C)NC(=O)c2c[nH]c3ncc(-c4ccccc4)nc23)c1 [A5] | – | 39 | 21 | 74 | –
9 | COCCCNC(=O)c1c[nH]c2ncc(C3CC3)nc12 [A6, UNC-BE4-032] | > 10000 | – | – | – | –
10 | COCCCNC(=O)c1c[nH]c2ncc(C3CC3)nc12 [A6] | – | 26 | 31 | 74 | STK3 % activity remaining (1µM) [3]: 44%
11 | CS(=O)(=O)N1CCN(C(=O)c2c[nH]c3ncc(C4CC4)nc23)CC1 [A9, UNC-BE4-031] | > 10000 | – | – | – | –
12 | CS(=O)(=O)N1CCN(C(=O)c2c[nH]c3ncc(C4CC4)nc23)CC1 [A9] | – | 98 | 92 | 106 | STK3 % activity remaining (1µM) [3]: 82%
13 | CNS(=O)(=O)CCNC(=O)c1c[nH]c2ncc(C3CC3)nc12 [A11, UNC-BE4-033] | > 10000 | – | – | – | –
14 | CNS(=O)(=O)CCNC(=O)c1c[nH]c2ncc(C3CC3)nc12 [A11] | – | 36 | 60 | 71 | STK3 % activity remaining (1µM) [3]: 89%
15 | O=C(c1c[nH]c2ncc(C3CC3)nc12)N1CCOCC1 [A13, UNC-BE4-036] | > 10000 | – | – | – | –
16 | O=C(c1c[nH]c2ncc(C3CC3)nc12)N1CCOCC1 [A13] | – | 84 | 85 | 82 | STK3 % activity remaining (1µM) [3]: 138%
17 | CN(C)c1ncnc2[nH]cc(-c3cccc(C#N)c3)c12 [B1, UNC-SOB-5-16] | 4300 | – | – | – | IC50 [1]: 113 nM
18 | CN1C(=O)c2sccc2N(C)c2nc(Nc3ccc(S(N)(=O)=O)cc3)ncc21 [XMU-MP-1] | – | 14 | 15 | 40 | –
